Experimental findings from US20120252784A1, “2,3,4-BENZOTHIADIAZEPINE-2,2-DIOXIDE DERIVATIVES” (priority 2009, published 2012) are described below.

The experiment relates to taurine. The experiment is described as follows: Changes in amino acid neurotransmitter levels in the cortical area of male rats (HPLC, electrochemical detection). It is filed as in vivo, rat. Particulars: male SPDR rats, intraperitoneal, 0.4% aqueous methylcellulose suspension, decapitated 30 minutes after administration, compared to vehicle control group. As for the experimental part:
The in vivo biological effectiveness of the compounds of the present invention on the central nervous system was examined by the following experimental model.
Changes in Amino Acid Neurotransmitter Levels in the Cortical Area of Male Rats
Male SPDR rats weighing 200-250 g, were used in the experiments. Changes in the concentration of amino acid neurotransmitters were measured from cortical areas by high-performance liquid chromatography (HPLC) and electrochemical detection.
The investigations were carried out with two experimental groups wherein each group contained 8 animals. One group was administered intraperitoneally by vehicle only (control group). The other group was administered intraperitoneally by the compound of the Example 15, suspended in vehicle. The dose of administration was in the form of 0.4% aqueous methylcellulose suspension.
The animals were decapitated 30 minutes after the administration, brains have been removed and required brain regions were dissected. The tissues were stored at −70° C.
The tissues were homogenized in ice-cold 0.1 M perchlorate in 500 volume excess. […]
The tissue concentrations of the amino acids were measured by standard solutions containing amino acids with known concentration.

Consider `CN1N=C(c2ccc(F)cc2)c2cc(Cl)ccc2CS1(=O)=O` [Example 16, 7-Chloro-5-(4-fluoro-phenyl)-3-methyl-1,3-dihydro-2̂,4-benzothiadiazepin-2,2-dioxide], for which the “concentrations of the amino acid taurine in the frontal cortex” value is “significantly increased”.
